{"source": "patent US6653478B2", "about": "“Substituted benzimidazol-2-ones as vasopressin receptor antagonists and neuropeptide Y modulators” (Ortho-McNeil Pharmaceutical, Inc., priority 2000, dated 2003)", "key": {"human V1a receptor": {"biological_target": "human V1a receptor (Homo sapiens, UniProt P37288)", "sequence (P37288 whole entry)": "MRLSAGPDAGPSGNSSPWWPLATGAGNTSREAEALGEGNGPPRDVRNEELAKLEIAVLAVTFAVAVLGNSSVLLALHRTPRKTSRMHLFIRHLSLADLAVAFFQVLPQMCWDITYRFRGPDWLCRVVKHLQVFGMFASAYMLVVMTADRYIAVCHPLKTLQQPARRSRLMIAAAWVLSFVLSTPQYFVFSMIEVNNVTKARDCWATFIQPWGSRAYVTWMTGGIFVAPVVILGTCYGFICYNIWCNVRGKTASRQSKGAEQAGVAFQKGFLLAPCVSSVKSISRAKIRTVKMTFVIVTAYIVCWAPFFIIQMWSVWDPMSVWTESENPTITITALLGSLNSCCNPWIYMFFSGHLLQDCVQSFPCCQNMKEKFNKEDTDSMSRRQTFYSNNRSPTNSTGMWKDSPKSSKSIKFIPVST", "assay": "V1a binding assay (3H-AVP displacement, HEK-293 membranes)", "parameters": "expressed in transfected cells; host or cells: HEK-293 (membranes)", "how_it_was_run": "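Each well: membranes, test compound (from 10% DMSO working stock), 3H-AVP. Buffer pH 7.5 with 0.1% BSA and protease inhibitors; 1 h, room temperature. Non-specific binding: 1.25 μM AVP. Filter, wash, count.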"}, "NPY2 receptors": {"biological_target": "T1, NPY2 receptors (Homo sapiens, UniProt P49146)", "T1 construct": "Cell Membranes from KAN-TS cells having NPY2 receptors; endogenous in cells; host or cells: KAN-TS cells (membranes)", "T1 sequence (P49146 1-381)": "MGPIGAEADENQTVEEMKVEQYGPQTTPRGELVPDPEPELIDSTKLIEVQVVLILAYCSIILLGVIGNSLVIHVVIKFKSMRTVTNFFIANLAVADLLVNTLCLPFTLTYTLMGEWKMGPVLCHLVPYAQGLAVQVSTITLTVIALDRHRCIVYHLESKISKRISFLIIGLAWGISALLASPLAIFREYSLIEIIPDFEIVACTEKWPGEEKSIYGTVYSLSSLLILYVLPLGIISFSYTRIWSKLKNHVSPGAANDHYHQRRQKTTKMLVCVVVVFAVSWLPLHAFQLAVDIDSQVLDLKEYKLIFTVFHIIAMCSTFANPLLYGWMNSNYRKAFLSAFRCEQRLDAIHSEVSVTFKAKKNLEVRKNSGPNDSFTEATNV", "assay": "Neuropeptide Y receptor binding assay (125I-PYY, KAN-TS cell membranes)", "details": "10 μM compound; for inhibition at 10 µM: read-out: NPY-2@10, % Inh", "how_it_was_run": "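Membranes from KAN-TS cells competed with 125I-PYY in binding buffer containing BSA, test compound at 10 μM final, 1 hr at room temperature. Nonspecific binding defined with 1 μM PYY final. Tubes centrifuged, washed with PBS and bound radioactivity gamma-counted.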"}}, "note": "Structures can show the parent of a compound that is named as a salt."}
{"compound": "1-[(N1-Piperidinocarbothioyl-(1-L-carboxymethyl-2-phenylamino)-4-yl]-3-(3-aminopropyl)-1,3-dihydrobenzimidazol-2-one Hydrochloride [Compound 57]", "values": [{"measurement": "IC50", "setting": "human V1a receptor", "result": 260, "unit": "nM"}, {"measurement": "NPY-2@10, % Inh", "setting": "NPY2 receptors", "result": 20, "unit": "%"}]}
{"compound": "CCN(CC)CCn1c(=O)n(C2CCN(C(=S)NC(c3ccccc3)c3ccccc3)CC2)c2ccccc21", "note": "[Compound 35, 1-(N1-Piperidinocarbothioyldiphenylmethylamino-4-yl)-3-(2-diethyaminoethyl)-1,3-dihydrobenzimidazol-2-one]", "values": [{"measurement": "IC50", "setting": "human V1a receptor", "result": 75, "unit": "nM"}, {"measurement": "inhibition at 10 µM", "setting": "NPY2 receptors", "result": 74, "unit": "%"}]}
{"compound": "CCN(CC)CCn1c(=O)n(C2CCN(C(=S)NC(Cc3ccccc3)C(=O)OC)CC2)c2ccccc21", "note": "[Compound 42, 1-(N1-Piperidinocarbothioyl-(2-phenyl-1-L-carboxymethyl)amino-4-yl)-3-(2-diethyaminoethyl)-1,3-dihydrobenzimidazol-2-one]", "values": [{"measurement": "IC50", "setting": "human V1a receptor", "result": 38, "unit": "nM"}, {"measurement": "inhibition at 10 µM", "setting": "NPY2 receptors", "result": 10, "unit": "%"}]}
{"compound": "NCCCn1c(=O)n(C2CCN(C(=S)NC(c3ccccc3)c3ccccc3)CC2)c2ccccc21", "note": "[Compound 55, 1-[(N1-Piperidinocarbothioyldiphenylmethylamino)-4-yl]-3-(3-aminopropyl)-1,3-dihydrobenzimidazol-2-one Monohydrochloride]", "values": [{"measurement": "IC50", "setting": "human V1a receptor", "result": 27, "unit": "nM"}, {"measurement": "inhibition at 10 µM", "setting": "NPY2 receptors", "result": 82, "unit": "%"}]}
{"compound": "N=C(N)NCCCn1c(=O)n(C2CCN(C(=S)NC(c3ccccc3)c3ccccc3)CC2)c2ccccc21", "note": "[Compound 59, 1-[(N1-Piperidinocarbothioyldiphenylmethylamino)-4-yl]-3-(3-guanidinopropyl)-1,3-dihydrobenzimidazol-2-one]", "values": [{"measurement": "IC50", "setting": "human V1a receptor", "result": 32, "unit": "nM"}, {"measurement": "inhibition at 10 µM", "setting": "NPY2 receptors", "result": 90, "unit": "%"}]}
